Data: patent publication US5061703A, “Adamantane derivatives in the prevention and treatment of cerebral ischemia” (priority 1989, dated 1991)
Where “and” joins values, the source holds several entries; their conditions need not be identical. Equal values may be shown once. Read-outs that look alike come from different tables or passages of the source.

Tests used:
[1] = tested on: neurons in the CA1-CA4 region of the hippocampus; assay: Protection Against Cerebral Ischemia (carotid occlusion in rats, hippocampal histology); type: in vivo, rat; conditions: for damaged neurons, area CA1 / damaged neurons, area CA3 / damaged neurons, area CA4: single administration 1 h prior to ischemia, ± SEM
Experimental: Both carotid arteries are occluded in rats for 10 minutes. […] The ischemia is terminated by opening the carotids and reinfusion of the withdrawn blood. After seven days the brains of the test animals are histologically examined for cellular changes in the CA1-CA4 region of the hippocampus, and the percentage of destroyed neurons is determined.

[2] = tested on: electrically induced convulsions; assay: Anticonvulsive Effect (supermaximum electroshock test in mice); type: in vivo, mouse; conditions: for ED50 / Anticonvulsive action (score), Mean: i.p.; for ED50: electroshock 40 min after application, estimated according to Litchfield and Wilcoxon; for Anticonvulsive action (score): i.p., 4, 12, 36, 108 and 324 mg/kg, protected animals added over all dosages, maximum = 25, individual scores; for Anticonvulsive action (score), Mean: mean of scores, maximum = 25
Experimental: 4, 12, 36, 108 and 324 mg/kg of the test substance is administered to mice by the intraperitoneal route (5 animals per dose). The supermaximum electroshock test is applied forty (40) minutes after application of the substance to investigate the anti-convulsive potential of the substance. The protected animals are added up over all dosages (score; maximum=25 animals).

[3] = tested on: NMDA-induced mortality; assay: Protection Against NMDA-Induced Mortality (mice); type: in vivo, mouse; conditions: 200 mg/kg NMDA i.p.
Experimental: It is well known that, subsequent to cerebral ischemia, glutamate and aspartate levels increase massively in the brain. These excitatory aminoacids overstimulate the NMDA-subtype of the glutamate receptor thus leading to delayed neuronal death. A similar pathophysiological situation is obtained when mice are administered intraperitoneally with 200 mg/kg NMDA. This high dose will eventually cause 100% mortality in the animals (Leander et al. 1984, Brain Res. 448; 115-120).

[4] = molecular target: NMDA receptor-associated ionic channel (PCP/TCP binding site); assay: Displacement of TCP Binding (3H-TCP, membrane preparation of rat cortex)
Experimental: Phencyclidine (PCP), a known NMDA antagonist, binds to the NMDA receptor-associated ionic channel and blocks ionic transport (Garthwaite & Garthwaite, Neurosci. Lett. 83, 1987, 241-246).
The interaction between compounds of formula (I) and the PCP bond is studied in the following. In this test ^3 H-TCP, a PCP analogue, is used.
A membrane preparation of rat cortex is incubated with ^3 H-TCP which is an analogue of phencyclidine (PCP) (Quirion & Pert 1982, Eur. J. Pharmacol. 83:155). The interaction with the TCP binding is assessed for test compound no. 1 (1-amino-3,5-dimethyl adamantane) in a competitive experiment. […] The conclusion can be drawn that compound no. 1 binds to NMDA receptor channels at the same site as the NMDA antagonist PCP.

[5] = tested on: MK-801 binding site of the NMDA receptor channel; conditions: as reported in the foregoing publication (Kornhuber et al. 1989); cited from earlier work
[6] = tested on: NMDA receptor channel; assay: Blocking of NMDA Receptor Channels (patch-clamp, cultivated spinal marrow neurons); type: cell-based, mouse; conditions: 20 μM NMDA and 6 μM of adamantane derivative; current integrated 20 sec; means ± SEM
Experimental: In the following test it is shown that the compounds of formula (I) according to the invention are as effective as PCP in blocking the NMDA receptor channel.
In the patch-clamp experiment, the current flowing through NMDA-activated membrane channels of cultivated spinal marrow neurons (mouse) is measured (Hamill et al 1981, Pflugers Arch. 312: 85-100). After application of 20 μM NMDA, the current signal of the cell is integrated for 20 sec. and recorded as a control answer (Ac). During succeeding application of 20 μM NMDA and 6 μM of an adamantane derivative, the intensity of the substance effect can be determined as a relative change of the control answer (A/Ac -A=test answer).

[7] = tested on: brain cells after cerebral ischemia; conditions: rats; Sauer et al. 1988; cited from earlier work
[8] = molecular target: MK-801 binding site of the NMDA receptor channel; assay: Displacement of [3H] MK-801 Binding in Human Brain Tissue (frontal cortex homogenates); conditions: [3H] MK-801 (3 nM), mean of triplicate experiments
Experimental: MK-801 binds to the ion channel associated with the NMDA receptor, as well as TCP does. This binding site is thought to mediate the neuroprotective effects of non-competitive NMDA-antagonists.
We have investigated whether the adamantane derivatives of the present invention are active at the MK-801 binding site. Tissue from frontal cortex was taken from patients at autopsy and homogenates were prepared. Inhibition of specific [^3 H] MK-801 binding (3 nM) by the test compounds was determined (see e.g. Kornhuber et al. 1989, Eur. J. Pharmacol. 166: 589-590).
wherein Ki is the inhibition constant and nM is nanomoles per liter. Mean values from triplicate experiments are given ± S.E.M.
The inhibition constant Ki is approximately equal to the concentration of the adamantane in nM required to displace 50% of the MK-801 specifically bound to the receptor.

[9] = Mus musculus, ip, 40 min, read-out: ED50

For `CC12CC3CC(C)(C1)CC(N)(C3)C2` [Compound no. 1, 1-amino-3,5-dimethyl adamantane], the “damaged neurons, area CA1” value ([1]; 5 mg/kg (n = 5)) was 83.0 ± 2.2%, the “damaged neurons, area CA3” value ([1]; 5 mg/kg (n = 5)) was 7.3 ± 1.8% and the “damaged neurons, area CA4” value ([1]; 5 mg/kg (n = 5)) was 3.7 ± 1.7%. The “damaged neurons, area CA3” value ([1]; 20 mg/kg (n = 6)) was 2.7 ± 1.0%, the “damaged neurons, area CA4” value ([1]; 20 mg/kg (n = 6)) was 0.6 ± 0.3% and the “damaged neurons, area CA1” value ([1]; 20 mg/kg (n = 6), **p < 0.01 (U test)) was 53.1 ± 6.1%. For the same compound, the “reduction of post-ischemic neuronal brain damage in the CA1 region (in words)” value ([1]; pre-ischemic application of 20 mg/kg, rat hippocampus) was “statistically significant”, the “physiological parameters (e.g. blood pressure, body temperature)” value ([1]; rats, during ischemia test) was “not affected by the treatment” and the ED50 [2, 9] was 16 mg/kg. The “Anticonvulsive action (score)” value ([2]; 40 min) was 18 and 16 and 15, the “Anticonvulsive action (score), Mean” value ([2]; 40 min) was 16.3 and the “Protected Animals” value ([3]; 10 mg/kg) was 3/8. For the same compound, the “Protected Animals” value ([3]; 25 mg/kg) was 6/8, the “Protected Animals” value ([3]; 50 mg/kg) was 8/8 and the IC50 ([4]; membrane preparation of rat cortex, competitive experiment) was 89 nM. The “displacement of TCP from the bond (in words)” value ([4]; rat cortex membranes) was “very effective”, the “potency compared with thirteen other clinically-used and centrally-acting drugs (in words)” value [5] was “most potent compound” and the 1-A/Ac [6] was 0.66 ± 0.05.

For `C[C@]12N[C@H](Cc3ccccc31)c1ccccc12` [MK-801, 5-methyl-10,11-dihydro-5H-dibenzo[a,d]cycloheptene-5,10-imine, reference compound], the ED50 [2, 9] was under 1 mg/kg, the “Anticonvulsive action (score)” value ([2]; 40 min) was 25 and the “Anticonvulsive action (score), Mean” value ([2]; 40 min) was 25.0. It also gave a 1-A/Ac [6] of 0.60 ± 0.05.

For `c1ccc(C2(N3CCCCC3)CCCCC2)cc1` [PCP, Phencyclidine, reference compound], the “prevention of destruction of brain cells after cerebral ischemia (in words)” value [7] is given as “prevent the destruction of brain cells after cerebral ischemia in rats”, the “Anticonvulsive action (score)” value ([2]; 40 min) is given as 19 and the “Anticonvulsive action (score), Mean” value ([2]; 40 min) is given as 19.0. For the same compound, the ED50 [2] was 9 mg/kg and the 1-A/Ac [6] was 0.50 ± 0.04.

With `CCC12CC3CC(CC(N)(C3)C1)C2` [compound 2, 1-amino-3-ethyl adamantane] the ED50 [2, 9] was 30 mg/kg, the “Anticonvulsive action (score)” value ([2]; 40 min) was 15 and 14 and 12 and the “Anticonvulsive action (score), Mean” value ([2]; 40 min) was 13.7. The 1-A/Ac [6] was 0.44 ± 0.08.

With `CC(C)C12CC3CC(CC(N)(C3)C1)C2` [compound 3, 1-amino-3-isopropyl adamantane] the “Protected Animals” value ([3]; 25 mg/kg) was 4/8, the “Protected Animals” value ([3]; 50 mg/kg) was 6/8 and the Ki [8] was 598 nM. The 1-A/Ac [6] was 0.58 ± 0.07.

In the case of `CCC12CC3CC(N)(C1)CC(CC)(C3)C2` [compound 4, 1-amino-3,5-diethyl adamantane], the ED50 [2, 9] is reported as 24 mg/kg, the “Anticonvulsive action (score)” value ([2]; 40 min) is reported as 16 and 11 and the “Anticonvulsive action (score), Mean” value ([2]; 40 min) is reported as 14.3. For the same compound, the “Protected Animals” value ([3]; 25 mg/kg) was 5/8, the “Protected Animals” value ([3]; 50 mg/kg) was 7/8 and the Ki [8] was 189 nM. It also gave a 1-A/Ac [6] of 0.50 ± 0.11.

In the case of `CNC12CC3CC(C)(CC(C)(C3)C1)C2` [compound 5, 1-N-methylamino-3,5-dimethyl adamantane], the ED50 [2, 9] is reported as 13 mg/kg, the “Anticonvulsive action (score)” value ([2]; 40 min) is reported as 17 and the “Anticonvulsive action (score), Mean” value ([2]; 40 min) is reported as 17.0. For the same compound, the “Protected Animals” value ([3]; 25 mg/kg) was 5/8, the Ki [8] was 1610 nM and the 1-A/Ac [6] was 0.56 ± 0.07.

For `CCNC12CC3CC(C)(CC(C)(C3)C1)C2` [compound 6, 1-N-ethylamino-3,5-dimethyl adamantane], the 1-A/Ac [6] was 0.38 ± 0.05.

Work on `NC12CC3CC(C1)CC(C1CCCCC1)(C3)C2` [compound 7, 1-amino-3-cyclohexyl adamantane] yielded a 1-A/Ac [6] of 0.25 ± 0.04.

In the case of `CCC12CC3(C)CC(C)(CC(N)(C3)C1)C2` [compound 8, 1-amino-3,5-dimethyl-7-ethyl adamantane], the 1-A/Ac [6] is reported as 0.50 ± 0.03.
